According to the supplement of paper PMC13380429:

Legend:
Settings in all cases: 72 h
Caco-2 [1] = assay: cell viability relative to DMSO; higher = less toxic
Calu-3 [2] = assay: as above
U2OS [3] = assay: as above
HepG2 [4] = assay: as above
Caco-2 [5] = assay: drug sensitivity score (DSS) for viability; higher = more toxic; extreme values may be limits of the assay
Calu-3 [6] = assay: as above
U2OS [7] = assay: as above
HepG2 [8] = assay: as above
Caco-2 [9] = assay: relative viability EC50 (midpoint between 100% and the lowest measured viability); higher = less toxic
Calu-3 [10] = assay: as above
U2OS [11] = assay: as above
HepG2 [12] = assay: as above
Vero E6 [13] = assay: cell viability relative to DMSO; higher = less toxic
Vero E6 [14] = assay: drug sensitivity score (DSS) for viability; higher = more toxic; extreme values may be limits of the assay
Vero E6 [15] = assay: relative viability EC50 (midpoint between 100% and the lowest measured viability); higher = less toxic

Compound	cell viability (Caco-2 [1]; 1 nM)	cell viability (Caco-2 [1]; 10 nM)	cell viability (Caco-2 [1]; 100 nM)	cell viability (Caco-2 [1]; 1000 nM)	cell viability (Caco-2 [1]; 10000 nM)	cell viability (Calu-3 [2]; 1 nM)	cell viability (Calu-3 [2]; 10 nM)	cell viability (Calu-3 [2]; 100 nM)	cell viability (Calu-3 [2]; 1000 nM)	cell viability (Calu-3 [2]; 10000 nM)	cell viability (U2OS [3]; 1 nM)	cell viability (U2OS [3]; 10 nM)	cell viability (U2OS [3]; 100 nM)	cell viability (U2OS [3]; 1000 nM)	cell viability (U2OS [3]; 10000 nM)	cell viability (HepG2 [4]; 1 nM)	cell viability (HepG2 [4]; 10 nM)	cell viability (HepG2 [4]; 100 nM)	cell viability (HepG2 [4]; 1000 nM)	cell viability (HepG2 [4]; 10000 nM)	drug sensitivity score (Caco-2 [5])	drug sensitivity score (Calu-3 [6])	drug sensitivity score (U2OS [7])	drug sensitivity score (HepG2 [8])	relative viability EC50 (Caco-2 [9])	relative viability EC50 (Calu-3 [10])	relative viability EC50 (U2OS [11])	relative viability EC50 (HepG2 [12])	cell viability (Vero E6 [13]; 1 nM)	cell viability (Vero E6 [13]; 10 nM)	cell viability (Vero E6 [13]; 100 nM)	cell viability (Vero E6 [13]; 1000 nM)	cell viability (Vero E6 [13]; 10000 nM)	drug sensitivity score (Vero E6 [14])	relative viability EC50 (Vero E6 [15])
CCCOc1ccc2[nH]cc(C3=CCNCC3)c2n1	95.1%	95.4%	95.6%	94.2%	100%	94.1%	84.5%	96.1%	96.2%	93.2%	103%	97.9%	101%	101%	99.5%	104%	106%	99.1%	97.2%	96.4%	0	0	0	0	> 10 µM	> 10 µM	> 10 µM	> 10 µM							
COc1ccc(CC(=O)NC(/N=C(\NC#N)Nc2cccc3ncccc23)C(C)(C)C)cc1OC (stereo not given)	101%	97.8%	94.1%	101%	99.7%	113%	96.5%	95.6%	109%	103%						107%	95.7%	93.8%	97.5%	106%	0	0		0	> 10 µM	> 10 µM		> 10 µM	103%	97%	91.1%	96.9%	99.8%	0	> 10 µM
Clc1cccc(-n2nnnc2NCc2ccccc2Oc2ccccn2)c1Cl	104%	97.1%	104%	96.2%	96.1%	92%	93.5%	88%	89.1%	102%	101%	98.9%	100%	102%	98.9%	104%	98.4%	104%	104%	92.1%	0	0	0	0	> 10 µM	> 10 µM	> 10 µM	> 10 µM							
Nc1nc(N)c2nc(-c3cccc(O)c3)cnc2n1	93.5%	105%	99.1%	84.5%	86.1%	99.9%	97.5%	103%	80%	34.1%	95.6%	99.4%	99.7%	95.5%	51.7%	98.1%	99.7%	102%	92.5%	49.6%	1.6	6.6	3.2	3.9	> 10 µM	1.4 µM		2 µM	103%	95.5%	97.7%	98.4%	86.7%	0.2	> 10 µM
O=C(Cc1ccc(Cl)c(Cl)c1)N1CCCC[C@@H]1CN1CCCC1	85.2%	97%	104%	95.5%	102%	100%	105%	92.1%	109%	103%						95.8%	93.5%	99.1%	89.8%	83.5%	0	0		0.4	> 10 µM	> 10 µM		> 10 µM	102%	104%	99.5%	105%	98.7%	0	> 10 µM
CCOc1ccccc1C(=O)O [2-ethoxybenzoic-acid]	102%	93.1%	95.5%	97.9%	93.9%	113%	99.9%	97.1%	99.6%	108%	95.8%	99.6%	93.7%	94.8%	98.7%	111%	107%	93.5%	101%	91.7%	0	0	0	0	> 10 µM	> 10 µM	> 10 µM	> 10 µM							
O=c1ccc2c(OCCCCOc3ccccc3)c3ccoc3cc2o1 [AS-77]	97%	99%	96.6%	105%	89.7%	97.5%	92.5%	95.8%	102%	98.4%	98.1%	102%	101%	104%	100%	106%	99.4%	98.3%	94.4%	90%	0	0	0	0	> 10 µM	> 10 µM	> 10 µM	> 10 µM							
CCn1c(=O)/c(=C2\Sc3ccccc3N2C)s/c1=C\c1cccc[n+]1CC [MKT-077]	92.5%	93.7%	100%	95%	44%	96.4%	99.9%	101%	94.8%	20.8%	97.8%	98.4%	96.2%	94.3%	51.4%	104%	92.8%	109%	100%	49%	3.8	5.2	3.5	2.6	2.43 µM	2.64 µM		3.23 µM	100%	97.1%	95.3%	90.8%	81%	0.9	> 10 µM
COc1ccc(CCC(=O)c2c(O)cc(O[C@@H]3O[C@H](CO)[C@@H](O)[C@H](O)[C@H]3O[C@@H]3O[C@@H](C)[C@H](O)[C@@H](O)[C@H]3O)cc2O)cc1O [Neohesperidin dihydrochalcone (Nhdc)]	102%	104%	95.2%	94.2%	106%	108%	92.8%	102%	99.6%	109%						101%	110%	108%	107%	92.1%	0	0		0	> 10 µM	> 10 µM		> 10 µM	103%	104%	99.9%	104%	99.7%	0	> 10 µM
CC(C)=CCC[C@](C)(O)[C@H]1CC[C@]2(C)[C@@H]1[C@H](O)C[C@@H]1[C@@]3(C)CC[C@H](O)C(C)(C)[C@@H]3CC[C@]12C [S-111]	106%	98.3%	103%	104%	99.8%	95.5%	95.4%	89.1%	97.2%	93%											0	0			> 10 µM	> 10 µM			104%	102%	98.3%	105%	100%	0	> 10 µM
O=C(Nc1ccc(N2CCC(C(=O)N3CCOCC3)CC2)cc1)c1cnc(Oc2ccccc2)nc1 [TFC-007]	99.6%	101%	110%	97.9%	110%	96%	87.6%	100%	100%	103%						106%	110%	101%	91.8%	91.4%	0	0		0	> 10 µM	> 10 µM		> 10 µM	90.1%	101%	90%	95%	110%	0	> 10 µM
CCOc1cc(N2CCC(O)CC2)ccc1Nc1ncc2c(n1)N(C)c1ccccc1C(=O)N2C [XMD8-92]	96.1%	93%	90%	89.8%	84.6%	90.2%	112%	98.1%	109%	77.5%	92.7%	105%	93.6%	94.6%	73.3%	101%	99.4%	102%	104%	74.4%	0.9	0.5	1.8	0.8	> 10 µM	> 10 µM			99.7%	93.2%	99.7%	93.5%	41.2%	4.3	2.26 µM
OCc1ccc(-c2nn(Cc3ccccc3)c3ccccc23)o1 [YC-1]	106%	112%	105%	113%	97.4%	106%	93.2%	109%	104%	115%	104%	105%	102%	101%	65.6%	104%	112%	102%	73.5%	0.4%	0	0	1.5	9.5	> 10 µM	> 10 µM		1.5 µM	103%	103%	104%	104%	98.1%	0	> 10 µM
